Key:
[1] = tested on: E7-specific T lymphocyte lines; conditions: Altmann et al.; cited from earlier work
DR7-restricted clone = conditions: Strang et al.; cited from earlier work
CD4+ T lymphocytes = assay: Proliferation assay ([3H]-thymidine incorporation) of PBMCs / cells from patients having bowenoid papulosis; format: cell-based, human; conditions: patient, DR 1501, DRB5
Protocol: A suspension of cells (PBMCs, CD8+ cell-depleted PBMCs, T lymphocytes pre-enriched by a step of culturing in vitro with the peptides selected according to the invention, or cloned T lymphocytes) is cultured for 3 to 5 days in the presence of the selected peptides and, as needed, of suitable presenting cells, such as dendritic cells, autologous or heterologous PBMCs, lymphoblastoid cells such as those obtained after infection with the EBV virus or genetically modified cells. The cell proliferation is measured by incorporation of tritiated thymidine into the DNA of the cells. The peptides selected in accordance with the invention make it possible to reveal, in the initial suspension, the presence of cells specific for these peptides. • as regards the ELISPOT assay:
To verify the stimulation of CD4+ T cell proliferation using immunogenic composition according to the invention, a proliferation assay is performed in vitro.
The cells (PBMCs) extracted from peripheral blood were cultured in 96-well microplates in a proportion of 2×10^5 cells per well, in a final volume of 200 μl of complete medium. The cells were or were not stimulated with 10 μg/ml of a mixture of peptides according to the invention. […] The cells were recovered and the [^3H]-thymidine incorporation was measured in a cellular DNA. […]

cells from patients = conditions: cited from earlier work; for Proliferation of cells from patients infected with HPV, responders/tested: De Gruijl et al.
cells in the blood = conditions: Tsukui et al., 140 HPV16+ patients; cited from earlier work

## E7: 5-18: HPV16 E7 peptide, positions 5-18, Altmann et al. (TPTLHEYMLDLQPE; UniProt P03129 5-18, looked up, fragment)
[1]
  Recognition by T lymphocyte line or clone from a patient: Recognized by line from a DR1

## E6: 42-57: HPV16 E6 peptide, positions 42-57, Strang et al. (QQLLRREVYDFAFRDL; UniProt P03126 42-57, looked up, fragment)
DR7-restricted clone
  Recognition by T cell clone: Recognized by DR7-restricted

## CC[C@H](C)[C@H](N)C(=O)N[C@@H](CCCNC(=N)N)C(=O)NCC(=O)N[C@@H](CCCNC(=N)N)C(=O)N[C@@H](Cc1c[nH]c2ccccc12)C(=O)N[C@H](C(=O)NCC(=O)N[C@@H](CCCNC(=N)N)C(=O)N[C@@H](CS)C(=O)N[C@@H](CCSC)C(=O)N[C@@H](CO)C(=O)N[C@@H](CS)C(=O)N[C@@H](CS)C(=O)N[C@@H](CCCNC(=N)N)C(=O)N[C@@H](CO)C(=O)N[C@@H](CO)C(=O)N[C@@H](CCCNC(=N)N)C(=O)N[C@H](C(=O)N[C@@H](CCCNC(=N)N)C(=O)N[C@@H](CCCNC(=N)N)C(=O)N[C@@H](CCC(=O)O)C(=O)N[C@H](C(=O)N[C@@H](CCC(N)=O)C(=O)N[C@@H](CC(C)C)C(=O)O)[C@@H](C)O)[C@@H](C)O)[C@@H](C)O [E6/10]
CD4+ T lymphocytes
  Prolif: peptide recognized, in terms of proliferation, by the CD4+ T lymphocytes: weak

## E7: 17-34: HPV16 E7 peptide, positions 17-34, Altmann et al. (PETTDLYCYEQLNDSSEE; UniProt P03129 17-34, looked up, fragment)
[1]
  Recognition by T lymphocyte line or clone from a patient: Recognized by line from a DR4

## E7: 43-80: HPV16 E7 peptide, positions 43-80, De Gruijl et al. (GQAEPDRAHYNIVTFCCKCDSTLRLCVQSTHVDIRTLE; UniProt P03129 43-80, looked up, fragment)
Cells from patients
  Proliferation of cells from patients infected with HPV, responders/tested: 10/28

## E7: 69-82: HPV16 E7 peptide, positions 69-82, Altmann et al. (VQSTHVDIRTLEDL; UniProt P03129 69-82, looked up, fragment)
[1]
  Recognition by T lymphocyte line or clone from a patient: Recognized by clone from a DR4

## E7: 67-98: HPV16 E7 peptide, positions 67-98, De Gruijl et al. (LCVQSTHVDIRTLEDLLMGTLGIVCPICSQKP; UniProt P03129 67-98, looked up, fragment)
Cells from patients
  Proliferation of cells from patients infected with HPV, responders/tested: 17/28
Cells from patients; de Gruijl et al.
  Stimulation of the cells of patients, in words: stimulates the cells of a majority of patients

## E7: 19-56: HPV16 E7 peptide, positions 19-56, De Gruijl et al. (TTDLYCYEQLNDSSEEEDEIDGPAGQAEPDRAHYNIVT; UniProt P03129 19-56, looked up, fragment)
Cells from patients
  Proliferation of cells from patients infected with HPV, responders/tested: 10/28

## E7: 1-32: HPV16 E7 peptide, positions 1-32, De Gruijl et al.
Cells from patients
  Proliferation of cells from patients infected with HPV, responders/tested: 8/28

## E6: 1-45: HPV16 E6 peptide, positions 1-45, Tsukui et al. (MHQKRTAMFQDPQERPRKLPQLCTELQTTIHDIILECVYCKQQLL; UniProt P03126 1-45, looked up, fragment)
Cells in the blood
  Secretion of IL2 (activation of cells) by patients, responders/tested: 0/140

## E6: 111-158: HPV16 E6 peptide, positions 111-158, Tsukui et al. (INCQKPLCPEEKQRHLDKKQRFHNIRGRWTGRCMSCCRSSRTRRETQL; UniProt P03126 111-158, looked up, fragment)
Cells in the blood
  Secretion of IL2 (activation of cells) by patients, responders/tested: 11/140

— patent US7488791B2, “Mixture of peptides derived from E6 and/or E7 papillomavirus proteins and uses thereof” (priority 2001, dated 2009)
